According to patent US20040116418A1, “Compounds and methods for inhibition of HIV and related viruses” (Medivir AB, priority 1994, published 2004):
Several values for one entry are separate records, joined by “and”; a condition that tells them apart may be missing. Identical values can stand only once. Like-named read-outs stand apart in the source and are kept apart here. One block for each compound: values may come before it.

Tests used:
HIV virus = assay: Test A (XTT): reduction of virus-caused cytotoxicity in MT4 cells; format: cell-based; details: for inhibition at 0.01 µg/mL: 0.01 μg/ml; for % inhibition: Test A
Protocol: Tests A, B, C, and D (XTT)
MT4 cells in a medium of RPMI 1640, 5% FCS, penicillin/streptomycin are adjusted to 2×10^5 cells/ml and seeded into microplates (96 wells/plate) […] cell suspension/well giving 2×10^4 cells/well. The compound to be tested is made into a 10 mg/ml mixture in DMSO and stored at −20° C. […] Further dilutions to […] are made in medium containing microplates. Fifty ml of the 400, 40, and 4 mg/ml are transferred to the cell-containing microplates with a multi-channel pipette (final concentration: 100, 10, and 1 mg/ml). Finally, […] of virus suspension is added to each well (with a repetitive “Eppendorf” multipipett). […] The plate is put into a plastic bag and incubated for six days in CO2 atmosphere.
To each well in the plate is added 50 ml of XTT ((2,3-bis[2-methoxy-4-nitro-5-sulfophenyl]-5-[(phenylamin o)carbonyl]-2H-tetrazolium hydroxide), (1 mg/ml 0.01-0.02 mM N-metyl-phenazonium methosulfate). After six hours of incubation in C02 atmosphere the plates are covered with adhesive plate sealers and gently mixed on a vortex. Optical densities are determined at a wavelength of 450 nm and a reference wavelength of 650 nm. The percent reduction of cytotoxocity caused by the virus infection is calculated as follows: [formula]

recombinant HIV-RT = recombinant HIV-RT (Human immunodeficiency virus type 1 group M subtype B, UniProt P04585); assay: Test I (HIVRT (rAdt)): direct inhibitory activity on HIV-RT; format: biochemical
Protocol: 100 mM Tris-HCl pH 7.6, 100 mM KCl, 4 mM MgCl2, 4 mM DTT, 275 mg/ml BSA, 0.5 mg (rA)n(dT)12-18 and 0.3 mM ^3H-=dTTP (specific activity 18.000 cpm/mol). After 60 minutess of incubation 40 ml in duplicate were spotted on paper discs and washed in 5% TCA. After rinsing the paper discs in ethanol they were dried and counted in scintillation fluid.

[1] = Human immunodeficiency virus 1, MT4
[2] = Human immunodeficiency virus 1, MT4, Test A
[3] = Human immunodeficiency virus 1, MT4, Test A, 100 μg/ml, read-out: % inhibition
[4] = headed 0.1 μg/ml (after 0.001 μg/ml)

SMILES: O=C(Nc1ccc(Cl)cn1)N[C@H]1CC1c1c(F)cccc1F (some centres unmarked)
inhibition at 0.1 µg/mL (HIV virus; [1]): 100% | inhibition at 10 µg/mL (HIV virus; [1]): 100% | inhibition at 100 µg/mL (HIV virus; [1]): 100% | inhibition at 0.001 µg/mL (HIV virus; Human immunodeficiency virus 1, MT4, Test A, 0.001 μg/ml): 7% | inhibition at 0.01 µg/mL (HIV virus; [2]): 80% | inhibition at 100 µg/mL (HIV virus; [3]): 3% | % inhibition (HIV virus; 0.001 μg/ml): 8% | % inhibition (HIV virus; 1 μg/ml): 90% | % inhibition (recombinant HIV-RT; 0.001 μg/ml): 62% | inhibition at 0.001 µg/mL (recombinant HIV-RT; 0.001 μg/ml): 55% | % inhibition (recombinant HIV-RT; 0.01 μg/ml): 93% | inhibition at 0.01 µg/mL (recombinant HIV-RT; 0.01 μg/ml): 89% | % inhibition (recombinant HIV-RT; 0.1 μg/ml): 97% | inhibition at 0.1 µg/mL (recombinant HIV-RT; 0.1 μg/ml): 98% | inhibition at 1 µg/mL (recombinant HIV-RT; 1 μg/ml): 100% | % inhibition (recombinant HIV-RT; [4]): 6% and 16%

SMILES: CCOc1ccc(F)c(CCNC(=O)Nc2ccc(Br)cn2)c1Cl
% inhibition (recombinant HIV-RT; [4]): 13% and 18%

SMILES: CCOc1ccc(F)c(C2C[C@@H]2NC(=O)Nc2ccc(Cl)cn2)c1Cl (some centres unmarked)
inhibition at 0.01 µg/mL (HIV virus; [2]): 100% | inhibition at 0.1 µg/mL (HIV virus; Human immunodeficiency virus 1, MT4, Test A, 0.1 μg/ml, read-out: % inhibition): 100% | inhibition at 1 µg/mL (HIV virus; Human immunodeficiency virus 1, MT4, Test A, 1 μg/ml): 87% | inhibition at 10 µg/mL (HIV virus; Human immunodeficiency virus 1, MT4, Test A, 10 μg/ml, read-out: % inhibition): 88% | inhibition at 100 µg/mL (HIV virus; [3]): 24% | % inhibition (HIV virus; 100 μg/ml): 30% | % inhibition (recombinant HIV-RT; 0.001 μg/ml): 30% | inhibition at 0.001 µg/mL (recombinant HIV-RT; 0.001 μg/ml): 46% | % inhibition (recombinant HIV-RT; 0.01 μg/ml): 80% | inhibition at 0.01 µg/mL (recombinant HIV-RT; 0.01 μg/ml): 82% | inhibition at 0.1 µg/mL (recombinant HIV-RT; 0.1 μg/ml): 96% | % inhibition (recombinant HIV-RT; 1 μg/ml): 97% | inhibition at 1 µg/mL (recombinant HIV-RT; 1 μg/ml): 99% | IC50 (recombinant HIV-RT; read-out: IC50 (converted)): 2.86 nM and 5.21 nM

SMILES: O=C(Nc1ccc(Cl)cn1)N[C@@H]1C[C@@H]1c1cccc([N+](=O)[O-])c1 (racemic) [Example 21, (+,−)-N-(cis-2-(3-Nitrophenyl)-cyclopropyl)-N′-(5-chloropyrid-2-yl)-urea]
IC50 (recombinant HIV-RT; read-out: IC50 (converted)): 150 nM

SMILES: CC(=O)c1cccc([C@H]2C[C@H]2NC(=O)Nc2ccc(Cl)cn2)c1 (racemic) [Example 23, (+,−)-N-(cis-2-(3-Acetylphenyl)-cyclopropyl)-N′-(5-chloropyrid-2-yl)-urea]
IC50 (recombinant HIV-RT; read-out: IC50 (converted)): 15.2 nM and 42.5 nM

SMILES: O=C(Nc1ccc(Br)cn1)N[C@@H]1C[C@H]1c1c(F)cccc1F (relative stereo) [Example 27, (1R,2S)-N-(cis-2-(2,6-Difluorophenyl)-cyclopropyl)-N′-(5-bromopyrid-2-yl)-urea]
IC50 (recombinant HIV-RT): 0.5 ng/mL and 0.6 ng/mL

melting point: 189 °C
SMILES: N#Cc1ccc(NC(=O)N[C@@H]2C[C@@H]2c2c(F)cccc2Cl)nc1 (relative stereo) [Example 33, N-(cis-2-(2-chloro-6-fluorophenyl)-cyclopropyl)-N′-(5-cyanopyrid-2-yl)-urea]

SMILES: COCOc1c(C(C)=O)ccc(F)c1[C@H]1C[C@H]1NC(=O)Nc1ccc(Cl)cn1 (relative stereo) [Example 56, (+,−)-N-(cis-2-(5-Acetyl-2-fluoro-6-methoxymethoxy-phenyl)cyclopropyl)-N′-(5-chloropyrid-2-yl)-urea]
IC50 (recombinant HIV-RT): 2.2 ng/mL

melting point: 151 to 154 °C
SMILES: CC(NC(=O)Nc1ccc(Br)cn1)c1ncccc1F (centres unmarked) [Example 10, N-(3-Fluoropyrid-2-yl)eth-2yl-N′-(5-bromopyrid-2-yl)-urea]

SMILES: CC(=O)c1ccc(F)c(CCNC(=O)Nc2ccc(Cl)cn2)c1O [Example 58]
IC50 (recombinant HIV-RT): 38 ng/mL
